Patent US11850235B2, “Preventative effect of mebendazole against malignancies in neurofibromatosis” (priority 2021, dated 2023)

Key:
pERK = experiment: Immunohistochemistry of pERK1/2 and ERK1/2 in tumors of NPcis mice; type: in vivo; conditions: sarcomas of NPcis mice, 195 mg/kg diet
Protocol: Mouse tumors were first fixed by formalin and embedded in paraffin. For hematoxylin & eosin (H&E) staining, the section was de-paraffinized and stained by the standard hematoxylin and eosin procedure to visualize tissue structures. For immunostaining, rabbit anti-Erk1/2 and anti-pErk1/2 antibodies were used. Sections were de-paraffinized using a standard procedure and blocked using 1.9% H2O2 in methanol at room temperature for 10 min. Sections were heated at 100° C. for 20 min in the antigen retrieval citrate solution and blocked by the serum-free protein blocker for 5 min at room temperature. After incubation with the rabbit anti-Erk1/2 or anti-pErk1/2 antibody diluted at 1:50 overnight at 4° C., biotin-conjugated anti-rabbit IgG was applied for 20 min at room temperature, followed by washing and incubation with streptavidin peroxidase for 15 min at room temperature. Antibody binding was visualized by the 3,3′-Diaminobenzidine (DAB) chromogen system. Subsequently, sections were counterstained by hematoxylin. Immunohistochemistry (IHC) quantification of representative tumor tissue sections was carried out with open source software using JPEG files. Mean optical density (OD) was calculated as the log average (maximal intensity/mean intensity) after image processing with color deconvolution and background subtraction. […]

NF90-8 cells = experiment: Cell proliferation assay (Cell Counting Kit-8), NF90-8; type: cell-based; conditions: Homo sapiens, 72 h
Protocol: (§1) The human NF1-associated MPNST cell line NF90.8 was privately provided and sNF96.2 was purchased from the American Type Culture Collection. […] These cell lines were not authenticated. All cells were tested and found free of mycoplasma contamination. A cell proliferation assay was performed using Cell Counting Kit-8. Cells in 100 μL media in a 96-well plate were incubated with 10 μL of WST-8, a tetrazolium salt, at 37° C. in a tissue culture incubator. Absorbance was measured at 450 nm. Half maximal inhibitory concentrations (IC50s) were determined by incubating cells at a range of concentrations for 72 h and were calculated using the log (inhibitor) vs. response function and non-linear fit. Human MPNST cells NF90-8 and sNF96.2, both derived from NF1 patients, were treated with various MBZ concentrations for 72 h. […] Because NF1-associated tumors are mainly driven by Ras hyperactivation, MBZ's ability to inhibit Ras activity in the NF90-8 cell line was studied by exposing NF90-8 cells to different concentrations of MBZ (0.2 and 1 μM) for 24 h. […] This confirmed the Ras inhibitory effect of MBZ in vitro.

sNF96.2 cells = experiment: Cell proliferation assay (Cell Counting Kit-8), sNF96.2; type: cell-based; conditions: Homo sapiens, 72 h
Protocol: as §1

[1] = test system: GTP-bound Ras in NF90-8 cells; experiment: Ras activity assay (Active Ras Detection Kit, GST-Raf1-RBD pull-down); type: cell-based, human; conditions: 0.2 and 1 μM, 24 h
Protocol: A Ras activity assay was performed according to the manufacturer's instructions for the Active Ras Detection Kit. Briefly, cells were lysed with the Lysis/Binding/Wash buffer and pelleted, then the supernatant was used as the cell lysate. In the positive control, 5 μL of 10 mM GTPγS was added to 500 μL of lysates and incubated at 30° C. for 15 min. Cell lysates were incubated with glutathione resin, together with the purified GST-Raf1-RBD protein at 4° C. for 1 h in a spin cup. The resin was washed, and the bound proteins were eluted by incubating with dithiothreitol (DTT)-containing sample buffer at RT for 2 min. Eluted samples were heated and analyzed by anti-Ras Western blotting. Human MPNST cells NF90-8 and sNF96.2, both derived from NF1 patients, were treated with various MBZ concentrations for 72 h. […] Because NF1-associated tumors are mainly driven by Ras hyperactivation, MBZ's ability to inhibit Ras activity in the NF90-8 cell line was studied by exposing NF90-8 cells to different concentrations of MBZ (0.2 and 1 μM) for 24 h. […] This confirmed the Ras inhibitory effect of MBZ in vitro.

[2] = test system: NPcis (cis Nf1+/-; Tp53+/-) mice; experiment: Chemoprevention in NPcis mice (tumor onset, survival, cause of death); type: in vivo; conditions: for effect on survival of non-solid malignancy-related and unknown causes of death / effect on overall median survival vs controls / overall median survival: NPcis mice; for effect on survival of non-solid malignancy-related and unknown causes of death: male and female; for effect on overall median survival vs controls: treatment from day 60; for overall median survival: MBZ 195 mg/kg feed, CXB 1000 ppm feed, SUL 160 ppm drinking water; for increase in median survival: 195 mg/kg feed
Excerpt: NPcis (cis Nf1+/−; Tp53+/−) mice in C57BL/6 background (B6;129S2-Trp53tm1Tyj Nf1tm1Tyj/J) were bred by pairing male heterozygous NPcis mice with the female wildtype mice to better generate MPNST animals. Since homozygous Nf1/Tp53 KO mice are embryonically lethal, only heterozygous and wildtype pups were born. Like NF1 patients, NPcis mice spontaneously develop predominantly soft tissue sarcomas including MPNSTs (genetically engineered murine (GEM) PNSTs) and malignant Triton tumors, as well as rhabdomyosarcomas and astrocytomas that severely limit their life expectancy to ˜5 months. The addition of heterozygous Tp53 knock-out (KO) accelerates the cancer development, which mimics the secondary mutations required for the transformation to malignancies such as MPNST, where the second copy of Nf1 is also lost due to the loss of heterozygosity (LOH).
(§2) At day 60 after birth, heterozygous mice were started on the medicated feed or water. The mouse diet consisting of 45 kcal % fat containing soybean oil and lard for fat was used as the control feed. […] Sulindac was added to drinking water at 160 ppm (0.5 mg/day) in 4 mM sodium phosphate buffer as previously described. Animals were palpated weekly for tumors and survival and cause of death were recorded.
In order to investigate the tumor-preventative effects of MBZ, continuous oral administration of MBZ via 195 mg/kg feed was initiated at 60 days after birth, before the formation of any malignancies. Mice were palpated weekly for the presence of any tumors. For the purpose of this study, ‘Solid Malignancies’ were defined as any type of sarcoma and astrocytoma, in addition to neuroblastomas and carcinomas, while ‘Others’ included non-solid malignancies such as lymphomas, leukemias and unknown causes of death.

[3] = Dose-dependent toxicity of medicated feed in NPcis mice; type: in vivo
Protocol: as §2
This range was calculated based on previously established maximal dose of 50 mg/kg MBZ via oral gavage and the estimated daily food intake of a mouse. Mice were weighed weekly and examined for signs of toxicity over 4 weeks.

[4] = 195 mg/kg feed from day 60, solid malignancies, male and female combined

Structure (SMILES): COC(=O)Nc1nc2ccc(C(=O)c3ccccc3)cc2[nH]1 [MBZ, mebendazole]
- ERK staining, mean intensity (pERK): 0.07
- pERK DAB staining, mean optical density (OD) (pERK; three tumor samples): 0.02
- IC50 (NF90-8 cells): 180 nM
- IC50 (sNF96.2 cells): 320 nM
- activated form of GTP-bound Ras [1]: reduced in MBZ-treated NF90-8 cells in a concentration-dependent manner
- delay of tumor occurrence and median mortality vs control [2, 4]: 32 days
- tumor occurrence and median mortality [2, 4]: 192 days
- effect on survival of non-solid malignancy-related and unknown causes of death [2]: did not affect
- effect on overall median survival vs controls [2]: significantly increased
- overall median survival [2]: 199 days
- increase in median survival ([2]; female mice, solid malignancies): 14 days
- increase in median survival ([2]; male mice, solid malignancies): 34.5 days
- reduction in solid cancer-related causes of death ([2]; vs control NPcis mice): ~25%
- tolerability of long-term daily continuous administration ([3]; 195 mg/kg feed, started 60 days after birth, male and female): well tolerated
- signs of toxicity ([3]; 250 and 215 mg/kg diets, over 4 weeks): excessive toxicity
- weight loss ([3]; 250 and 215 mg/kg diets, over 4 weeks, male and female NPcis mice): 10-15%

Structure (SMILES): CC1=C(CC(=O)O)c2cc(F)ccc2/C1=C\c1ccc([S+](C)[O-])cc1 (stereo not shown) [SUL, sulindac]
- effect on survival of non-solid malignancy-related and unknown causes of death [2]: neither SUL nor CXB had an effect
- effect on overall median survival vs controls [2]: failed to demonstrate any effect
- overall median survival [2]: 171.5 days
